# Assay results published in US7781402B2, “Methods and implantable devices for treating supraventricular arrhythmias” (Closed Loop Therapies Ltd., priority 2004, dated 2010).
# Legend:
# atrial tachycardia = assay: Termination of induced atrial tachycardia in anesthetized Wistar rats (ECG); assay type: in vivo
# Description: The effect of rapidly hydrolysable cholinergic receptor agonists (RHCA) on supraventricular arrhythmia was tested in anesthetized Wistar rats, as follows.
# (§1) Induction of atrial tachycardia, atrial fibrillation and atrial flutter in rats—Wistar rats of either sex weighing 450-550 g were used in this study. Rats were anesthetized and atrial tachycardia, atrial fibrillation, or atrial flutter were induced by cardiac stimulation using a programmable stimulator with an isolated constant-current source. Stimuli of rectangular pulses of 2 milliseconds (ms) duration at three times diastolic threshold were delivered via transesophageal bipolar catheter positioned optimally to stimulate the atria. Double and triple extra stimulation techniques or a minimal coupling interval of 10 ms were performed in an attempt to induce atrial arrhythmias. Atrial burst pacing at intervals of 40 to 80 ms was also performed to induce atrial arrhythmias.
# (§2) Electrocardiogram (ECG) recording—The surface six-lead ECG was continuously recorded from subcutaneous 25-gauge electrodes in each limb of the animal. The ECG channels were amplified (0.1-0.5 mV/cm) and filtered between 0.5-250 Hz. The ECG variables were calculated according to standard criteria.
# (§3) Rapidly hydrolysable cholinergic receptor agonists (RHCA)—The RHCA were injected either through the tail vein or directly into the right ventricular cavity of rats with induced atrial fibrillation, atrial flutter or atrial tachycardia. The RHCA used in the present study was acetylcholine (ACh). […]
# atrial flutter = assay: Termination of induced atrial flutter in anesthetized Wistar rats (ECG); assay type: in vivo; details: nine rats, 0.02-0.3 mg/kg via tail vein
# From the text: as §1, §2, §3
# arrhythmia induction = details: wild type and M1 cholinergic receptor knockout mice; cited from earlier work
# atrial fibrillation [1] = assay: Termination of induced atrial fibrillation in anesthetized Wistar rats (ECG); assay type: in vivo
# atrial fibrillation [2] = assay: as above; assay type: in vivo; remark: listed apart in the source
# From the text: as §1, §2
# Rapidly hydrolysable cholinergic receptor agonists (RHCA)—The RHCA were injected either through the tail vein or directly into the right ventricular cavity of rats with induced atrial fibrillation, atrial flutter or atrial tachycardia. The RHCA used in the present study was acetylcholine (ACh). ACh was dissolved at a concentration of either 1 mg/ml or 0.1 mg/ml in 0.9% NaCl solution and was injected either to the tail vein at a dosage of 0.2 mg/kg body weight, or to the right ventricle at a dosage of 0.02 mg/kg body weight.
# Atrial fibrillation was elicited in rats as described in Example 1, hereinabove.
# stroke = details: people with atrial fibrillation; cited from earlier work
# [3] = system: recent-onset atrial fibrillation; details: phase 3 trial; cited from earlier work
# [4] = 0.02 mg/kg into right ventricular cavity, FIG. 2b
# [5] = 0.2 mg/kg via tail vein, FIG. 2a
# [6] = bolus injection into the right ventricular cavity
# [7] = bolus injection into the tail vein
# [8] = bolus injection 0.04-0.2 mg/kg body weight
# [9] = 0.2 mg/kg through the tail vein, FIG. 5
# [10] = RHCA into right ventricular cavity, n=10, FIG. 4
compound,measurement,setting,value
CC(=O)OCC[N+](C)(C)C [acetylcholine],time of complete AV node conduction recovery following RHCA administration,atrial tachycardia; 0.02 mg/kg into right ventricular cavity,about 6 seconds
same,period of cardiac arrest after termination,atrial tachycardia; [4],1.25 s
same,time until AV conduction completely recovered,atrial tachycardia; [4],about 4.5 sec
same,time to termination of atrial tachycardia,"atrial tachycardia; 0.02 mg/kg into right ventricular cavity, example rat (FIG. 2b)",0.5 s
same,duration of high degree AV block,"atrial tachycardia; 0.02 mg/kg into right ventricular cavity, following acetylcholine hydrolysis",2.5 s
same,lag to termination of atrial tachycardia,"atrial tachycardia; 0.2 mg/kg body weight via tail vein, representative rat (FIG. 2a)",2.6 s
same,time for sinus rhythm to reach its pre-arrhythmic value,atrial tachycardia; 0.2 mg/kg via tail vein,about 1 minute
same,P-P interval immediately following RHCA administration,atrial tachycardia; [5],650 ± 3 ms
same,R-R interval immediately following RHCA administration,atrial tachycardia; [5],652 ± 3 ms
same,time to termination of atrial tachycardia,"atrial tachycardia; 0.02 or 0.2 mg/kg via right ventricular cavity or tail vein, respectively",0.5 to 15 s
same,additional time to restore normal rhythm,atrial tachycardia; [6],1 to 5 s
same,time to termination of atrial tachycardia,atrial tachycardia; [6],0.5 to 10.5 s
same,additional time to restore normal rhythm,atrial tachycardia; [7],1 to 5 s
same,time to termination of atrial tachycardia,atrial tachycardia; [7],2 to 15 s
same,"time until cardiac arrest, escape rhythm, AV block and sinus bradycardia all disappear",atrial tachycardia; injection into right ventricular cavity,≤ 15 s
same,time to conversion to sinus rhythm,"atrial tachycardia; ten rats, 0.02-0.2 mg/kg via tail vein",2 to 5 s
same,time to conversion to sinus rhythm,atrial flutter,2 to 5 s
same,effect of intravenous injection on heart rhythm,arrhythmia induction,caused atrioventricular conduction block and induced atrial fibrillation or flutter
same,time until transient sinus bradycardia (and AV block) disappeared,atrial fibrillation [1]; 0.04 mg/kg into right ventricular cavity,≤ 20 s
same,additional time to restore normal rhythm,atrial fibrillation [1]; [8],1 to 5 s
same,additional time until SA and AV nodes / AV conduction recovered,atrial fibrillation [2]; [9],1.5 s
same,time to termination of atrial fibrillation,atrial fibrillation [2]; [9],≤ 9.8 s
same,atrial fibrillation cases terminated,atrial fibrillation [2]; [10],100%
same,time within which atrial fibrillation cases are terminated,atrial fibrillation [2]; [10],≤ 8.4 ± 1.9 s
same,time to termination of atrial fibrillation,atrial fibrillation [2]; [8],0.5 to 15 s
same,additional time to restore normal rhythm,atrial fibrillation [2]; [6],1 to 5 s
same,time to termination of atrial fibrillation,atrial fibrillation [2]; [6],0.5 to 10.5 s
same,additional time to restore normal rhythm,atrial fibrillation [2]; [7],1 to 5 s
same,time to termination of atrial fibrillation,atrial fibrillation [2]; [7],2 to 15 s
"CC(=O)CC(c1ccccc1)c1c(O)c2ccccc2oc1=O (stereo not shown) [Coumadin, warfarin]",reduction of the risk of stroke,stroke,60-80%
COc1ccc(CCO[C@@H]2CCCC[C@H]2N2CC[C@@H](O)C2)cc1OC [RSD1235],conversion of recent-onset atrial fibrillation to sinus rhythm,[3],demonstrated its effectiveness to convert recent-onset atrial fibrillation to sinus rhythm
